These compounds were tested against hENPP2 (UniProtKB/SwissProt Q13822) (Homo sapiens (Human), UniProt Q13822) (assay: hENPP2 biochemical assay, LPC as substrate). Details: LPC (palmitoyl 16:0) as substrate.
Method: The principle of the assay consists in quantifying the released choline with an enzymatic method using choline oxidase and peroxidase. Choline oxydation by choline oxydase releases betaine and peroxide. The latter is quantified in presence of HRP that converts the peroxide detection agent TOOS and 4-aminoantipyrine into quinoneimine dye. The appearance of quinoneimine dye is measured spectrophotometrically at 555 nm and is proportional to the amount of choline released by ENPP2. Inhibition of ENPP2 will result in a decrease of the signal.
Compound IC50 values are determined in a hENPP2 (UniProtKB/SwissProt Sequence ref Q13822) biochemical assay using LPC as substrate.
The enzyme is diluted in 50 mM Tris-HCl pH 8.5, 500 mM NaCl, 5 mM KCl, 10 mM CaCl2, 0.1% fatty acid free BSA in a total volume of 10 μL. the reaction is started by the addition of 10 μL of 150 μM LPC (palmitoyl 16:0) diluted in the same buffer as described above and the mixture is incubated at 37° C. for 30 min. The reaction is terminated and choline quantified by the addition of a 25 μL of a mixture containing 0.6 U/mL of choline oxidase, 0.6 U/mL of peroxydase, 1.8 mM TOOS, 1.2 mM amino-antipyrine, 20 mM EGTA (stop-developer solution) diluted in the buffer described above. […] is read on the Envision after an incubation of 30 min at room temperature (Excitation 555 nm, excitation light=70%).

`CCc1nc2ccc(N3CCN(CC(=O)N4CC(F)C4)CC3)cn2c1N(C)c1nc(-c2ccc(F)cc2)cs1` [Compound 28, 2-(4-(2-ethyl-3-((4-(4-fluorophenyl)thiazol-2-yl)(methyl)amino)imidazo[1,2-a]pyridin-6-yl)piperazin-1-yl)-1-(3-fluoroazetidin-1-yl)ethanone] and `CCc1nc2ccc(N3CCN(CC(=O)N4CC(CO)C4)CC3)cn2c1N(C)c1nc(-c2ccc(F)cc2)cs1` [Compound 34, 2-(4-(2-ethyl-3-((4-(4-fluorophenyl)thiazol-2-yl)(methyl)amino)imidazo[1,2-a]pyridin-6-yl)piperazin-1-yl)-1-(3-(hydroxymethyl)azetidin-1-yl)ethanone] fall in the same range of IC50: 100 to 500 nM for the first, 100 to 500 nM for the second.

First: CCc1nc2ccc(N3CCN(CC(=O)N4CC(F)(F)C4)CC3)cn2c1N(C)c1nc(-c2ccc(F)cc2)cs1 [Compound 29, 1-(3,3-difluoroazetidin-1-yl)-2-(4-(2-ethyl-3-((4-(4-fluorophenyl)thiazol-2-yl)(methyl)amino)-imidazo[1,2-a]pyridin-6-yl)piperazin-1-yl)ethanone]
Second: CCc1nc2ccc(N3CCN(CC(=O)N4CCC4)CC3)cn2c1N(C)c1nc(-c2ccc(F)cc2)cs1 [Compound 30, 1-(azetidin-1-yl)-2-(4-(2-ethyl-3-((4-(4-fluorophenyl)thiazol-2-yl)(methyl)amino)imidazo[1,2-a]pyridin-6 yl)piperazin-1-yl)ethanone]
The IC50 of the first is higher: 100 to 500 nM for the first, 0.01 to 100 nM for the second.

First: CCc1nc2ccc(N3CCN(CC(=O)N4CCCC4)CC3)cn2c1N(C)c1nc(-c2ccc(F)cc2)cs1 [Compound 31, 2-(4-(2-ethyl-3-((4-(4-fluorophenyl)thiazol-2-yl)(methyl)amino)imidazo[1,2-a]pyridin-6-yl)piperazin-1-yl)-1-(pyrrolidin-1-yl)ethanone]
Second: CCc1nc2ccc(N3CCN(CC(=O)N4CCOCC4)CC3)cn2c1N(C)c1nc(-c2ccc(F)cc2)cs1 [Compound 32, 2-(4-(2-ethyl-3-((4-(4-fluorophenyl)thiazol-2-yl)(methyl)amino)imidazo[1,2-a]pyridin-6-yl)piperazin-1-yl)-1-morpholinoethanone]
The IC50 of the first is lower: 0.01 to 100 nM for the first, 100 to 500 nM for the second. The first is the more potent here.

Compared with `CCc1nc2ccc(N3CCN(CC(N)=O)CC3)cn2c1N(C)c1nc(-c2ccc(F)cc2)cs1` [Compound 33, 2-(4-(2-ethyl-3-((4-(4-fluorophenyl)thiazol-2-yl)(methyl)amino)imidazo[1,2-a]pyridin-6-yl)piperazin-1-yl)acetamide], `CCOC(=O)C(C)N1CCN(c2ccc3nc(CC)c(N(C)c4nc(-c5ccc(F)cc5)cs4)n3c2)CC1` (centres unmarked) [Compound 37, ethyl 2-(4-(2-ethyl-3-((4-(4-fluorophenyl)thiazol-2-yl)(methyl)amino)imidazo[1,2-a]pyridin-6-yl)piperazin-1-yl)propionoate] is higher in IC50: 500 to 1000 nM for the first, > 1000 nM for the second. The first is the more potent here.

`CCc1nc2ccc(N3CCN(C(=O)C4CCCN4C(=O)OC(C)(C)C)CC3)cn2c1N(C)c1nc(-c2ccc(F)cc2)cs1` (centres unmarked) [Compound 44, tert-butyl 2-(4-(2-ethyl-3-((4-(4-fluorophenyl)thiazol-2-yl)(methyl)amino)imidazo[1,2-a]pyridin-6-yl)piperazine-1-carbonyl)pyrrolidine-1-carboxylate] and `CCc1nc2ccc(N3CCN(C(=O)C4CCN(C(=O)OC(C)(C)C)C4)CC3)cn2c1N(C)c1nc(-c2ccc(F)cc2)cs1` (centres unmarked) [Compound 45, tert-butyl 3-(4-(2-ethyl-3-((4-(4-fluorophenyl)thiazol-2-yl)(methyl)amino)imidazo[1,2-a]pyridin-6-yl)piperazine-1-carbonyl)pyrrolidine-1-carboxylate] cannot be ordered by IC50: > 1000 nM for the first, > 1000 nM for the second.

`CCc1nc2ccc(C3=CCN(S(C)(=O)=O)CC3)cn2c1N(C)c1nc(-c2ccc(C(C)(C)C)cc2)cs1` [Compound 70, 4-(4-tert-butylphenyl)-N-(2-ethyl-6-(1-(methylsulfonyl)-1,2,3,6-tetrahydropyridin-4-yl)imidazo[1,2-a]pyridin-3-yl)-N-methylthiazol-2-amine] and `CCc1nc2ccc(C3=CCN(S(C)(=O)=O)CC3)cn2c1N(C)c1nc(-c2ccc(OC)cc2)cs1` [Compound 71, N-(2-ethyl-6-(1-(methylsulfonyl)-1,2,3,6-tetrahydropyridin-4-yl)imidazo[1,2-a]pyridin-3-yl)-4-(4-methoxyphenyl)-N-methylthiazol-2-amine] cannot be ordered by IC50: > 1000 nM for the first, > 1000 nM for the second.

`CCc1nc2ccc(C3=CCN(S(C)(=O)=O)CC3)cn2c1N(C)c1nc(-c2ccc(F)c(F)c2)cs1` [Compound 73, 4-(3,4-difluorophenyl)-N-(2-ethyl-6-(1-(methylsulfonyl)-1,2,3,6-tetrahydropyridin-4-yl)imidazo[1,2-a]pyridin-3-yl)-N-methylthiazol-2-amine] and `CCc1nc2ccc(C3CCN(S(C)(=O)=O)CC3)cn2c1N(C)c1nc(-c2ccc(F)c(F)c2)cs1` [Compound 83, 4-(3,4-difluorophenyl)-N-(2-ethyl-6-(1-(methylsulfonyl)piperidin-4-yl)imidazo [1,2-a]pyridin-3-yl)-N-methylthiazol-2-amine] cannot be ordered by IC50: > 1000 nM for the first, > 1000 nM for the second.

`CCc1nc2ccc(C3CCN(S(C)(=O)=O)CC3)cn2c1N(C)c1nc(-c2ccc(C(F)(F)F)cc2)cs1` [Compound 84, N-(2-ethyl-6-(1-(methylsulfonyl)piperidin-4-yl)imidazo [1,2-a]pyridin-3-yl)-N-methyl-4-(4-(trifluoromethyl)phenyl) thiazol-2-amine] and `CCc1nc2ccc(C3CCN(S(C)(=O)=O)CC3)cn2c1N(C)c1nc(-c2ccc(OC(F)(F)F)cc2)cs1` [Compound 85, N-(2-ethyl-6-(1-(methylsulfonyl)piperidin-4-yl)imidazo [1,2-a]pyridin-3-yl)-N-methyl-4-(4-(trifluoromethoxy)phenyl)thiazol-2-amine] cannot be ordered by IC50: > 1000 nM for the first, > 1000 nM for the second.

First: CCc1nc2ccc(C3CCN(S(C)(=O)=O)CC3)cn2c1N(C)c1nc(-c2ccc(F)cc2C#N)c(C)s1 [Compound 97, 2-(2-((2-ethyl-6-(1-(methylsulfonyl)piperidin-4-yl)imidazo [1,2-a]pyridin-3-yl)(methyl)amino)-5-methylthiazol-4-yl)-5-fluorobenzonitrile]
Second: CCc1nc2ccc(C3CCN(S(C)(=O)=O)CC3)cn2c1N(C)c1nc(-c2ccc(F)cc2CO)cs1 [Compound 107, (2-(2-((2-ethyl-6-(1-(methylsulfonyl)piperidin-4-yl)imidazo[1,2-a]pyridin-3-yl)(methyl)amino)thiazol-4-yl)-5-fluorophenyl)methanol]
The IC50 of the first is lower: 100 to 500 nM for the first, 500 to 1000 nM for the second. The first is the more potent here.

First: [2H]C([2H])([2H])N(c1nc(-c2ccc(F)cc2)cs1)c1c(CC)nc2ccc(C3CCN(S(C)(=O)=O)CC3)cn12 [Compound 102, 4-(4-fluorophenyl)-N-(2-ethyl-6-(1-(methylsulfonyl)piperidin-4-yl)imidazo [1,2-a]pyridin-3-yl)-N-(d3-methyl)thiazol-2-amine]
Second: CCc1nc2ccc(C3CCN(C(=O)CNC)CC3)cn2c1N(C)c1nc(-c2ccc(F)cc2)cs1 [Compound 127, 1-(4-(2-ethyl-3-((4-(4-fluorophenyl)thiazol-2-yl)(methyl)amino)imidazo[1,2-a]pyridin-6-yl)piperidin-1-yl)-2-(methylamino)ethanone]
The IC50 of the first is higher: > 1000 nM for the first, 500 to 1000 nM for the second. The second is the more potent here.

Compared with `CCc1nc2ccc(C3CCN(S(C)(=O)=O)CC3)cn2c1N(C)c1nc(-c2ccc(F)cc2)c(C(=O)OC)s1` [Compound 104, methyl 2-((2-ethyl-6-(1-(methylsulfonyl)piperidin-4-yl)imidazo [1,2-a]pyridin-3-yl)(methyl)amino)-4-(4-fluorophenyl)thiazole-5-carboxylate], `CCc1nc2ccc(C3CCN(CC(=O)N(C)CCO)CC3)cn2c1N(C)c1nc(-c2ccc(F)cc2)cs1` [Compound 119, 2-(4-(2-ethyl-3-((4-(4-fluorophenyl)thiazol-2-yl)(methyl)amino)imidazo[1,2-a]pyridin-6-yl)piperidin-1-yl)-N-(2-hydroxyethyl)-N-methylacetamide] is lower in IC50: > 1000 nM for the first, 500 to 1000 nM for the second. The second is the more potent here.

Compared with `CCc1nc2ccc(C3CCN(CC(=O)N4CCC(CO)C4)CC3)cn2c1N(C)c1nc(-c2ccc(F)cc2)cs1` (centres unmarked) [Compound 117, 2-(4-(2-ethyl-3-((4-(4-fluorophenyl)thiazol-2-yl)(methyl)amino)imidazo[1,2-a]pyridin-6-yl)piperidin-1-yl)-1-(3-(hydroxymethyl)pyrrolidin-1-yl)ethanone], `CCc1nc2ccc(C3CCN(CC(=O)NCCCO)CC3)cn2c1N(C)c1nc(-c2ccc(F)cc2)cs1` [Compound 123, 2-(4-(2-ethyl-3-((4-(4-fluorophenyl)thiazol-2-yl)(methyl)amino)imidazo[1,2-a]pyridin-6-yl)piperidin-1-yl)-N-(3-hydroxypropyl)acetamide] is higher in IC50: 100 to 500 nM for the first, > 1000 nM for the second.

`CCc1nc2ccc(C3CCN(CC(=O)N(C)CC#N)CC3)cn2c1N(C)c1nc(-c2ccc(F)cc2)cs1` [Compound 121, N-(cyanomethyl)-2-(4-(2-ethyl-3-((4-(4-fluorophenyl)thiazol-2-yl)(methyl)amino)imidazo[1,2-a]pyridin-6-yl)piperidin-1-yl)-N-methylacetamide] and `CCc1nc2ccc(C3CCN(CC4CNC(=O)O4)CC3)cn2c1N(C)c1nc(-c2ccc(F)cc2)cs1` (centres unmarked) [Compound 122, 5-((4-(2-ethyl-3-((4-(4-fluorophenyl)thiazol-2-yl)(methyl)amino)imidazo[1,2-a]pyridin-6-yl)piperidin-1-yl)methyl)oxazolidin-2-one] fall in the same range of IC50: 500 to 1000 nM for the first, 500 to 1000 nM for the second.
